What was measured:
PASK (Invitrogen) = biological target: T1, PASK (Invitrogen) (Homo sapiens, UniProt Q96RG2); experiment: PAS Kinase FRET Assay; format: biochemical; conditions: PAS kinase TR-FRET assay (665 nm/615 nm); read-out: IC50 Kinase Domain
T1 construct: IC50 Kinase Domain; purchased Invitrogen
Method in brief: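 PASK phosphorylates a ULight-peptide with ATP in 50 mM HEPES, 10 mM MgCl2, 1 mM EGTA, 0.01% Tween-20, 2 mM DTT for 2 h at 25° C in the dark. Compounds are added as 4× serial dilutions (top 12×10^−5 M at 4×). After stopping, an Eu anti-phospho-substrate antibody is added for 1 h and TR-FRET is read at 665/615 nm.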

PASK = biological target: T2, PASK (UniProt #Q96RG2; human recombinant N-terminal GST tagged construct, residues 879-1323) (Homo sapiens, UniProt Q96RG2); experiment: PASK ATP Radiochemical Assay; format: biochemical; conditions: 33P-ATP, Myelin Basic Protein substrate, read-out: IC50 Kinase Domain
T2 construct: N-terminal GST tagged construct, residues 879-1323; GST (N); host or cells: insect cells
T2 sequence (Q96RG2 879-1323, stated change not applied): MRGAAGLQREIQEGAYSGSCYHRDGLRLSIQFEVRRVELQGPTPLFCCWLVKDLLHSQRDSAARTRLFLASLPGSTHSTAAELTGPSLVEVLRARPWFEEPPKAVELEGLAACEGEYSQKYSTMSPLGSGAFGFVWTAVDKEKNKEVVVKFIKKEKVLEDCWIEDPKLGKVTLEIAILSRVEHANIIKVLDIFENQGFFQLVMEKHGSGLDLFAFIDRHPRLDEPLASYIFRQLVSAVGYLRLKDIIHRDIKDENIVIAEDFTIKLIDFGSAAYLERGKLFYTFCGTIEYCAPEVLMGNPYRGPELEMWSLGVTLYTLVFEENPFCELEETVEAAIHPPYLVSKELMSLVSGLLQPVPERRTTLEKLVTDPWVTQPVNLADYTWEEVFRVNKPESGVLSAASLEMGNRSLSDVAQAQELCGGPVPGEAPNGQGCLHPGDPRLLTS
Description: Biochemical Assay for hPASK Activity
PASK ATP Radiochemical Assay
(§1) Purified PASK (UniProt #Q96RG2; human recombinant N-terminal GST tagged construct, residues 879-1323) from insect cells (final concentration 5 nM) is added to freshly prepared Base Reaction Buffer containing 20 mM HEPES (pH 7.5), 10 mM MgCl2, 1 mM EGTA, 0.02% Brij35, 0.02 mg/ml BSA, 0.1 mM Na3VO4, 2 mM DTT, 1% DMSO and Myelin Basic Protein (20 μM final). Test compounds in DMSO are then added and the mixture, followed by delivery of ^33P-ATP (specific activity 0.01 μCi/μl final) to initiate the reaction. The kinase reaction is incubated for 120 min at room temperature. The entire reaction mixture is washed through onto a P81 Phosphocellulose paper and washed three times for 10 minutes in 75 mM phosphoric acid and once in methanol prior to drying and scintillation counting.

[1] = biological target: T3, PIM1 (NP_002639; human full-length protein, 6×His tagged) (Homo sapiens, UniProt P11309); experiment: Biochemical Assay for PIM1 Activity; conditions: 33P-ATP radiochemical assay, S6K/Rsk2 peptide 2 substrate
T3 construct: human full-length protein, 6×His tagged; 6xHis; host or cells: insect cells
T3 sequence (P11309 whole entry): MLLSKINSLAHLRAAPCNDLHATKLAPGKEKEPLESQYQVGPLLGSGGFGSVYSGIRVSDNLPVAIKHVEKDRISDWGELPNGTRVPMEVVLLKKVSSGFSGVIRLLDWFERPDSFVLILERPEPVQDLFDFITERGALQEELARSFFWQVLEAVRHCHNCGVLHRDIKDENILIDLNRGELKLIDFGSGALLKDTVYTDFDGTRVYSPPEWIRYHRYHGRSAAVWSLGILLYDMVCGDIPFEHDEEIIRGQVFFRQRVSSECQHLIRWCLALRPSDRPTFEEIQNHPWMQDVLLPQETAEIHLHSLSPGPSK
Description: Biochemical Assay for PIM1 Activity
as §1, with “Purified PIM1 (NP_002639;” for “Purified PASK (UniProt #Q96RG2;”, “human full-length protein, 6×His tagged)” for “human recombinant N-terminal GST tagged construct, residues 879-1323)”, “concentration 1.0” for “concentration 5”, “mM Hepes” for “mM HEPES”, “and substrate S6K/Rsk2 peptide 2 [KKRNRTLTK]” for “and Myelin Basic Protein”, “activity 10” for “activity 0.01”

[2] = biological target: T4, CK2a2 (NP_001887; human full-length protein, GST tagged) (Homo sapiens, UniProt P19784); experiment: Biochemical Assay for CK2 Activity; conditions: 33P-ATP radiochemical assay, CK2 sub [RRRDDDSDDD]
T4 construct: human full-length protein, GST tagged; GST; host or cells: insect cells
T4 sequence (P19784 whole entry): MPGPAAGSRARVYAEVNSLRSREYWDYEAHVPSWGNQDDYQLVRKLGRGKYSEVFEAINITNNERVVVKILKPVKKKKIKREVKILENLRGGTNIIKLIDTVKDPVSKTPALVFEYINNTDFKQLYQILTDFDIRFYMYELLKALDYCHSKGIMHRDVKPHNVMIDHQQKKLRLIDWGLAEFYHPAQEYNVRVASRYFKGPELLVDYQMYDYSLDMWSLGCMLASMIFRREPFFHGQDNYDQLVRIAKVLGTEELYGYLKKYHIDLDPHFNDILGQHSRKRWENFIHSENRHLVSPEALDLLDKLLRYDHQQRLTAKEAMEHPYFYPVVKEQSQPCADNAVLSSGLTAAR
Description: Biochemical Assay for CK2 Activity
as §1, with “Purified CK2a2 (NP_001887;” for “Purified PASK (UniProt #Q96RG2;”, “human full-length protein,” for “human recombinant N-terminal”, “GST tagged)” for “GST tagged construct, residues 879-1323)”, “concentration 1.2” for “concentration 5”, “mM Hepes” for “mM HEPES”, “and CK2 sub [RRRDDDSDDD]” for “and Myelin Basic Protein”

T1 sequence (Q96RG2 999-1251 limits assumed): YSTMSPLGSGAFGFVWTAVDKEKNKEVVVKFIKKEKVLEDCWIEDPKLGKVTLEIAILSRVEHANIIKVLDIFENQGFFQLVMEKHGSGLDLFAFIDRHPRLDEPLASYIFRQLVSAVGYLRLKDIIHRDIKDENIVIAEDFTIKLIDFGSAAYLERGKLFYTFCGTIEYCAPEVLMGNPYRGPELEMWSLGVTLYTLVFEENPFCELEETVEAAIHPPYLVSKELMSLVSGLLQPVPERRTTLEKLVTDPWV

IC50 (PASK (Invitrogen))	IC50 (PASK)	IC50 [1]	IC50 [2]	Structure (SMILES)
≤ 10 µM	≤ 10 µM	≤ 10 µM	≤ 10 µM	Cn1nccc1-c1cnn2c(=O)cc(-c3ccc(Cl)c(Cl)c3)[nH]c12 [Example 98, 5-(3,4-dichlorophenyl)-3-(1-methyl-1H-pyrazol-5-yl)pyrazolo[1,5-a]pyrimidin-7(4H)-one]
≤ 10 µM	≤ 10 µM	≤ 10 µM	≤ 10 µM	Cc1noc(-c2cnn3c(=O)cc(-c4ccc5c(cnn5C)c4)[nH]c23)n1 [Example 74, 3-(3-methyl-1,2,4-oxadiazol-5-yl)-5-(1-methyl-1H-indazol-5-yl)-4H,7H-pyrazolo[1,5-a]pyrimidin-7-one]
≤ 10 µM	≤ 10 µM	≤ 10 µM	≤ 10 µM	Cc1noc(-c2cnn3c(=O)cc(-c4ccc(Cl)c(Cl)c4)[nH]c23)n1 [Example 100, 5-(3,4-dichlorophenyl)-3-(3-methyl-1,2,4-oxadiazol-5-yl)-4H,7H-pyrazolo[1,5-a]pyrimidin-7-one]
≤ 10 µM	≤ 10 µM	≤ 10 µM	≤ 10 µM	CCn1ncc2cc(-c3cc(=O)n4ncc(-c5n[nH]cc5C)c4[nH]3)ccc21 [Example 84, 5-(1-ethyl-1H-indazol-5-yl)-3-(4-methyl-1H-pyrazol-3-yl)-4H,7H-pyrazolo[1,5-a]pyrimidin-7-one]
≤ 10 µM	≤ 10 µM	≤ 10 µM	≤ 10 µM	CCn1nccc1-c1cnn2c(=O)cc(-c3ccc(Cl)c(Cl)c3)[nH]c12 [Example 95, 5-(3,4-dichlorophenyl)-3-(1-ethyl-1H-pyrazol-5-yl)pyrazolo[1,5-a]pyrimidin-7(4H)-one]
≤ 10 µM	≤ 10 µM	≤ 10 µM	≤ 10 µM	COc1cc(-c2cc(=O)n3ncc(-c4ccnn4C)c3[nH]2)ccc1F [Example 79, 5-(4-fluoro-3-methoxyphenyl)-3-(1-methyl-1H-pyrazol-5-yl)pyrazolo[1,5-a]pyrimidin-7(4H)-one]
≤ 10 µM	≤ 10 µM	≤ 10 µM	≤ 10 µM	CCn1nccc1-c1cnn2c(=O)cc(-c3ccc4c(cnn4CC)c3)[nH]c12 [Example 67, 5-(1-ethyl-1H-indazol-5-yl)-3-(1-ethyl-1H-pyrazol-5-yl)pyrazolo[1,5-a]pyrimidin-7(4H)-one]
≤ 10 µM	≤ 10 µM	≤ 10 µM	≤ 10 µM	CCn1nccc1-c1cnn2c(=O)cc(-c3ccc(Cl)cc3)[nH]c12 [Example 66, 5-(4-chlorophenyl)-3-(1-ethyl-1H-pyrazol-5-yl)pyrazolo[1,5-a]pyrimidin-7(4H)-one]
≤ 10 µM	≤ 10 µM	≤ 10 µM	≤ 10 µM	O=c1cc(-c2ccc(Cl)c(Cl)c2)[nH]c2c(-c3cc[nH]n3)cnn12 [Example 70, 5-(3,4-dichlorophenyl)-3-(1H-pyrazol-3-yl)pyrazolo[1,5-a]pyrimidin-7(4H)-one]
≤ 10 µM	≤ 10 µM	≤ 10 µM	≤ 10 µM	CCn1ncc2cc(-c3cc(=O)n4ncc(-c5c(C)cnn5C)c4[nH]3)ccc21 [Example 85, 3-(1,4-dimethyl-1H-pyrazol-5-yl)-5-(1-ethyl-1H-indazol-5-yl)-4H,7H-pyrazolo[1,5-a]pyrimidin-7-one]
≤ 10 µM	≤ 10 µM	≤ 10 µM	≤ 10 µM	COc1cc(-c2cc(=O)n3ncc(-c4ccn(C)n4)c3[nH]2)ccc1Cl [Example 54, 5-(4-chloro-3-methoxyphenyl)-3-(1-methyl-1H-pyrazol-3-yl)pyrazolo[1,5-a]pyrimidin-7(4H)-one]
≤ 10 µM	≤ 10 µM	≤ 10 µM	≤ 10 µM	CCn1ncc2cc(-c3cc(=O)n4ncc(-c5nc(C)co5)c4[nH]3)ccc21 [Example 13, 5-(1-Ethyl-1H-indazol-5-yl)-3-(4-methyl-1,3-oxazol-2-yl)-4H,7H-pyrazolo[1,5-a]pyrimidin-7-one]
≤ 10 µM	≤ 10 µM	≤ 10 µM	≤ 10 µM	Cc1cnc(-c2cnn3c(=O)cc(-c4ccc5[nH]ncc5c4)[nH]c23)o1 [Example 24, 5-(1H-indazol-5-yl)-3-(5-methyloxazol-2-yl)pyrazolo[1,5-a]pyrimidin-7(4H)-one]
≤ 10 µM	≤ 10 µM	≤ 10 µM	≤ 10 µM	COc1cc(-c2cc(=O)n3ncc(-c4cc(C)n[nH]4)c3[nH]2)ccc1Cl [Example 69, 5-(4-chloro-3-methoxyphenyl)-3-(3-methyl-1H-pyrazol-5-yl)pyrazolo[1,5-a]pyrimidin-7(4H)-one]
≤ 10 µM	≤ 10 µM	≤ 10 µM	≤ 10 µM	CCn1ncc2cc(-c3cc(=O)n4ncc(-c5cc[nH]n5)c4[nH]3)ccc21 [Example 55, 5-(1-ethyl-1H-indazol-5-yl)-3-(1H-pyrazol-3-yl)pyrazolo[1,5-a]pyrimidin-7(4H)-one]
≤ 10 µM	≤ 10 µM	≤ 10 µM	≤ 10 µM	Cc1csc(-c2cnn3c(=O)cc(-c4ccc(Cl)cc4)[nH]c23)n1 [Example 58, 5-(4-chlorophenyl)-3-(4-methylthiazol-2-yl)pyrazolo[1,5-a]pyrimidin-7(4H)-one]
≤ 10 µM	≤ 10 µM	≤ 10 µM	≤ 10 µM	Cn1ncc2cc(-c3cc(=O)n4ncc(-c5cc[nH]n5)c4[nH]3)ccc21 [Example 71, 5-(1-methyl-1H-indazol-5-yl)-3-(1H-pyrazol-3-yl)-4H,7H-pyrazolo[1,5-a]pyrimidin-7-one]
≤ 10 µM	≤ 10 µM	≤ 10 µM	≤ 10 µM	COc1cc(-c2cc(=O)n3ncc(-c4ncco4)c3[nH]2)ccc1Cl [Example 19, 5-(4-chloro-3-methoxyphenyl)-3-(1,3-oxazol-2-yl)-4H,7H-pyrazolo[1,5-a]pyrimidin-7-one]
≤ 10 µM	≤ 10 µM	≤ 10 µM	≤ 10 µM	CCn1ncc2cc(-c3cc(=O)n4ncc(-c5ncc(-c6ccccc6)o5)c4[nH]3)ccc21 [Example 64, 5-(1-ethyl-1H-indazol-5-yl)-3-(5-phenyloxazol-2-yl)pyrazolo[1,5-a]pyrimidin-7(4H)-one]
≤ 10 µM	≤ 10 µM	≤ 10 µM	≤ 10 µM	O=c1cc(-c2ccc3[nH]ncc3c2)[nH]c2c(-c3ncco3)cnn12 [Example 23, 5-(1H-indazol-5-yl)-3-(oxazol-2-yl)pyrazolo[1,5-a]pyrimidin-7(4H)-one]
≤ 10 µM	≤ 10 µM	≤ 10 µM	≤ 10 µM	Cc1nn2c(=O)cc(-c3ccc4c(c3)OCO4)[nH]c2c1-c1ncco1 [Example 2, 5-(2H-1,3-benzodioxol-5-yl)-2-methyl-3-(1,3-oxazol-2-yl)-4H,7H-pyrazolo[1,5-a]pyrimidin-7-one]
	≤ 10 µM	≤ 10 µM	≤ 10 µM	CCn1ncc2cc(-c3cc(=O)n4ncc(-c5cc(C)n[nH]5)c4[nH]3)ccc21 [Example 68, 5-(1-ethyl-1H-indazol-5-yl)-3-(3-methyl-1H-pyrazol-5-yl)pyrazolo[1,5-a]pyrimidin-7(4H)-one]

From patent US10392389B2, “Heterocyclic compounds for the inhibition of PASK” (BioEnergenix, LLC, priority 2012, dated 2019)
